Measured values published in patent US20230293404A1, “Compositions Comprising Natural Polymers and One or More (Bio)-Alkanediols” (Symrise AG, priority 2020, published 2023).

What was measured:
[1] = tested on: microbial load of natural polymers; test: Microbial load of mixtures of natural polymers with alkanediols (plating, CFU count); type: cell-based, bacteria
Procedure: The following tests were performed to show the influence of different alkanediols on the microbial load of natural polymers.
A selection of natural polymers as specified in Table 1 was systematically analyzed in combination with different 1,2-alkanediols and 2,3-alkanediols (0.5%). The polymers were chosen to be representative from different polymer classes:
A mixture of the natural polymer (concentration as recommended by supplier) with water and 1,2-alkanediol (0.5%) or 2,3-alkanediol (0.5%) or a mixture of 1,2-alkanediol and 2,3-alkanediol (0.5% final concentration) was prepared, as representative of a cold formulation preparation processes, and directly sampled for determination of microbial load. Additionally, the mixtures were stored at 40° C. and again sampled for microbial load after 2 days and 7 days.
The microbial load of the mixtures was determined by plating 1000 μl (or respective dilutions of the material) on an agar plate based on universal bacterial growth medium (Caseinpepton-Sojamehlpepton-Bouillon, Merck 1.05459+Agar No. 1, Oxoid LP0011). The plates were then incubated at 37° C. for 5 days and then photo documented. In parallel, bacterial colonies were counted (CFU—colony forming units per ml).

[2] = Physical state of alkanediols and alkanediol mixtures at RTP; type: physicochemical; details: at RTP (room temperature, normal pressure); FIG. 3 and FIG. 4
Source text: The term “liquid alkanediol” within the context of the present invention means an alkanediol component which is liquid at room or ambient temperature and under normal pressure, i.e. standard RTP conditions.
FIG. 3 is a photograph showing from left to right samples of the liquid 1,2-pentanediol, 1,2-hexanediol, 1,2-heptanediol, 2,3-heptanediol, 2,3-octanediol and 2,3-undecanediol in comparison to the solid 1,2-octanediol, 1,2-undecanediol, 1,2-nonanediol and the liquid 2,3-nonanediol. The first six alkanediols are liquid at RTP, whereas 1,2-octanediol, 1,2-nonanediol and 1,2-undecanediol are solid substances at RTP; 2,3-nonanediol is also liquid at RTP.
FIG. 4 is a representative photograph of samples of mixtures of 1,2-alkanediols with the respective 2,3-alkanediol. All mixtures are liquid. They are shown in the following order: 1,2-heptanediol (95%)+2,3-heptanediol (5%), 1,2-octanediol (95%)+2,3-octanediol (5%), and 1,2-nonanediol (95%)+2,3-nonanediol (5%).

[3] = Maximum solubility of alkanediols in water (visual assessment); type: physicochemical; details: assessed at ambient temperature after 24 h storage at 5° C.; visual observation
Source text: The water solubility of a substance is the saturation mass concentration of the substance in water at a given temperature. The determination of the solubility in water relates to essentially pure substances which are stable in water and not volatile.
For the determination of the maximum water solubility of an alkanediol, water and different concentrations of the respective alkanediol were blended by stirring. […] The determination of whether the alkanediol has dissolved in water is based entirely on visual observation.

[4] = Covathick (0.5%) in water + 0.5% 2,3-alkanediol, 2 days storage at 40° C.
[5] = Covathick (0.5%) in water + 0.5% 2,3-alkanediol, 7 days storage at 40° C.
[6] = Covathick (0.5%) in water + 0.5% 2,3-alkanediol, fresh
[7] = Genuvisco (0.5%) in water + 0.5% 2,3-alkanediol, 2 days storage at 40° C.
[8] = Genuvisco (0.5%) in water + 0.5% 2,3-alkanediol, 7 days storage at 40° C.
[9] = Genuvisco (0.5%) in water + 0.5% 2,3-alkanediol, fresh
[10] = Polycos-N 75 (0.5%) in water + 0.5% 2,3-alkanediol, fresh

Structure (SMILES)	Bacterial load (colony forming units) [1, 4]	Bacterial load (colony forming units) [1, 5]	Bacterial load (colony forming units) [1, 6]	Bacterial load (colony forming units) [1, 7]	Bacterial load (colony forming units) [1, 8]	Bacterial load (colony forming units) [1, 9]	Bacterial load (colony forming units) [1, 10]	Bacterial load (colony forming units) ([1]; Table 4: Covathick (0.5%) in water + alkanediol or mixture, 0.5% total, 2 days storage at 40° C.)	Bacterial load (colony forming units) ([1]; Table 4: Covathick (0.5%) in water + alkanediol or mixture, 0.5% total, 7 days storage at 40° C.)	Bacterial load (colony forming units) ([1]; Table 4: Covathick (0.5%) in water + alkanediol or mixture, 0.5% total, fresh)	Bacterial load (colony forming units) ([1]; Table 4: PolyCos N-75 (0.5%) in water + alkanediol or mixture, 0.5% total, fresh)	Physical state [2]	Maximum solubility in water [3]	Bacterial load (colony forming units) ([1]; Polycos-N 75 (0.5%) in water + 0.5% 2,3-alkanediol, 2 days storage at 40° C.)	Bacterial load (colony forming units) ([1]; Polycos-N 75 (0.5%) in water + 0.5% 2,3-alkanediol, 7 days storage at 40° C.)	Bacterial load (colony forming units) ([1]; Xanthan Gum (0.5%) in water + 0.5% 2,3-alkanediol, 2 days storage at 40° C.)	Bacterial load (colony forming units) ([1]; Xanthan Gum (0.5%) in water + 0.5% 2,3-alkanediol, 7 days storage at 40° C.)	Effect on the microbial load of the natural polymer solutions (in words) ([1]; directly after preparation of the mixtures as well as after 7 days storage, Table 3)
CCCCC(O)C(C)O (stereo not drawn) [2,3-heptanediol]	0 CFU per mL	0 CFU per mL	5 CFU per mL	1 CFU per mL	1 CFU per mL	5 CFU per mL	2 CFU per mL	0 CFU per mL	0 CFU per mL	5 CFU per mL	2 CFU per mL	liquid	3.6 % by weight					
CCCCCC(O)C(C)O (stereo not drawn) [2,3-octanediol]	0 CFU per mL	0 CFU per mL	4 CFU per mL	0 CFU per mL	0 CFU per mL	5 CFU per mL	1 CFU per mL					liquid	1.5 % by weight	0 CFU per mL	0 CFU per mL	0 CFU per mL	0 CFU per mL	superior antimicrobial activity
